Assay results as given in patent US12503448B2, “Antibacterial and antiparasitic quinoxaline-2,3-diamine derivatives” (University College Cardiff Consultants Limited, priority 2019, dated 2025).
In brackets after ≈: the same amount, converted by molar mass. Where two headings read alike, the source gives them in different places.

How the values were obtained:
[1] = in vitro; conditions: plasma
[2] = Semi thermodynamic solubility; conditions: thermodynamic from solid
[3] = system: S. mansoni schistosomula; test: 72 hours schistosomula drug screen; type: cell-based, Schistosoma mansoni; conditions: for Selectivity Index Schistosomula: HepG2 CC50 over schistosomula EC50; for EC50: Schistosoma mansoni
Method: Biological Screening 72 Hours Schistosomula Drug Screen […] G. Colley, […], Schistosoma mansoni: simplified method for the production of schistosomules., Exp. Parasitol. 35 (1974) 44-51. Newly transformed schistosomula were prepared for 72 hour high throughput screening (HTS) in 384-well black-sided microtiter plates (Perkin Elmer, MA, USA) as described in M. Nur-e-alam, M. Yousaf, […]. Bari, H. A. Ghabbour, […]. Ho, A. J. […], Neoclerodane Diterpenoids from […], Teucrium […]. Nat. […] The data obtained in this manner is shown in Table 1 in the columns labelled “Phenotype”, “Motility” and “Schistosomula average”.

[4] = system: S. mansoni adult worms; test: Adult worm drug screen (WHO scoring, WormassayGP2); type: cell-based, Schistosoma mansoni
Description: Mice (MF-1 mice, Harlan, UK), infected 7 weeks previously with 180 cercaria, were euthanised with an intraperitoneal injection of phenobarbital/heparin solution. Adult worms were recovered by perfusion of the portal system and subjected to drug screening as previously described in Padalino G, Ferla S, Brancale A, Chalmers I W, Hoffmann K F. Int J Parasitol Drugs Drug Resist. 2018 December; 8(3):559-570; in Whiteland H L, Chakroborty A, Forde-Thomas J E, Crusco A, Cookson A, Hollinshead J, Fenn C A, Bartholomew B, Holdsworth P A, Fisher M, Nash R J, Hoffmann K F. Int J Parasitol Drugs Drug Resist. 2018 December; 8(3):465-474; and in Crusco A, Bordoni C, Chakroborty A, Whatley K C L, Whiteland H, Westwell A D, Hoffmann K F. Eur J Med Chem. 2018 May 25; 152:87-100. The data obtained in this manner is shown in Table 1 in the columns labelled “Adult worm”.
Regarding the quantification of drug treatment on adult worms (e.g. decreased activity, paralysis or sluggishness), two different approaches were used, as described below. Where egg deposition was noticed, eggs were removed and counted using a Sedgewick rafter slide.
Adult worms were scored using the standardized microscopic WHO-TDR scoring system previously described by Ramirez, B., Bickle, Q., Yousif, F., Fakorede, F., Mouries, M.-A., Nwaka, S. in Schistosomes: Challenges in compound screening, Expert Opin Drug Discov. 2007 October; 2(s1): S53-61. This scoring system (0-4) identifies changes in worm movement and is defined according to the following scoring matrix: 0=no movement, 1=no movement with visible gut peristalsis, 2=minimal movement (occasional movement from anterior or posterior end of the worm), 3=slow continuous movement and 4=normal movement.
A digital image processing-based system was also used to assess parasite motility after drug treatment and is a modification of methods previously described by Marcellino C., Gut, J., Lim, K., Singh R., McKerrow, L. and Sakanari, J. WormAssay: a novel computer application for whole-plate motion-based screening of macroscopic parasites. PLoS Negl Trop Dis. 2012 January:6(1):e1494. This allowed for objective verification of the WHO method described above. The data obtained with this quantification method is shown in Table 1 in the columns labelled “Adult worm”.

[5] = Mouse pharmacokinetics, oral cassette dosing; conditions: for AUC(0-t) / Cmax / MRT last / Tmax: male, C57/BL6, mouse, plasma, po, 2.5 mg/kg; for Tlast: oral, nominal dose 2.5 mg/kg, cassette
Method: Non-compartmental mouse pharmacokinetics (Male C57/BL6 Mouse, Fasted; 3 mice per group) were determined after oral administration of a nominal dose of 2.5 mg/kg of these formulations in cassettes (5 compounds/group) according to the protocols employed by WuXi (https://www.wuxiapptec.com; the CRO that conducted these studies).

[6] = Metabolic stability in mouse liver microsomes; conditions: liver microsomes
[7] = system: F. hepatica newly excysted juveniles (NEJs); test: Newly excysted juveniles (NEJs) drug screen; type: cell-based, Fasciola hepatica; design: scale not given here; conditions: 10 μM, 72 h; higher score indicates lower worm activity
Method: Newly Excysted Juveniles (NEJs) Drug Screen
F. hepatica (Italian strain) metacercariae were obtained from Ridgeway Research, Gloucestershire, UK and stored at 4° C. Newly excysted juveniles (NEJs) from metacercariae were produced based on an optimisation introduced to the excystment method published by Dixon et al. and Wilson et al (Dixon, K. E., The physiology of excystment of the metacercaria of Fasciola hepática L. Parasitology, 1966, 56, 431-456.; Wilson, L. R., Good, R. T., Panaccio, M., Wijffels, G. L., Sandeman, R. M., Spithill, T. W, Fasciola hepatica: Characterization and Cloning of the Major Cathepsin B Protease Secreted by Newly Excysted Juvenile Liver Fluke. Experimental Parasitology 1998, 88, 85-94).
After excystment, NEJs were distributed into a 24 well tissue culture plate at a density of 25 parasites per well containing 1 mL of pre-warmed NEJs culture media. Compounds were added to respective wells and NEJ/compound co-cultures were incubated at 37° C. in an atmosphere containing 5% CO2 for 72 hours at a final concentration of 10 μM.
F. hepatica NEJs (25 per well) were incubated with the three compounds at a concentration of 10 μM (in 0.1% DMSO) and cultured for 72 hrs at 37° C. in an atmosphere containing 5% CO2. Control wells (25 NEJs per well) included those containing 0.1% DMSO (solvent) and RMPI (media) as negative controls or 10 μM Triclabendazole (0.1% DMSO, as positive control, labelled “Tbz” (Comp. 3). After 72 hrs, all NEJs were scored for phenotype and motility metrics. For each treatment, an average of both phenotype and motility score was calculated based on the individual parasite scores (across two independent replicates), wherein a higher score indicates lower worm activity. SD is reported on the bar chart.

[8] = system: H3K4 methylation; test: Histone extraction and detection of global H3K4 methylation in treated adult worms; type: cell-based, Schistosoma mansoni; conditions: sub-lethal concentration 0.0024 μM, male and female adult worms
[9] = MTT assay on HepG2 cells; type: cell-based; conditions: human
Method: MTT Assay on HepG2 Cells Human Hepatocyte Carcinoma (HepG2) cells (85011430, Sigma Aldrich) were used to assess the overt toxicity of these anti-infective compounds. […] A negative control (1% v/v Triton X-100; X100, Sigma-Aldrich) was also included in each screen. After addition of compounds, each plate was then incubated for a further 20 hrs before application of MTT reagent (prepared as described in Nur-[…], Bari A, Ghabbour […], Hoffmann […] Nat Prod. 2017 Jun. 23; 80(6):1900-1908 for the assessment of compound cytotoxicity using the MTT assay. […] The plate was then further incubated for 4 hrs. After incubation, each plate was blotted dry under the laminar flow to remove the MTT treated culture media. A 100 μl DMSO: isopropanol (1:1) solution was then added to each well and the plate was then subsequently incubated for 10 minutes at 37° C. Following incubation, each plate was shaken again and then absorbance measured at 570 nm. The absorbance reading was corrected based on the average value of the wells used as blank (no cells). […] The data obtained in this manner is shown in Table 1 in the columns labelled “HepG2”. […] The selectivity indexes for schistosomula and adult worms are shown in the final two columns in Table 1.

[10] = system: Schistosoma mansoni; test: Anti-schistosomal in vivo efficacy screen (murine model of schistosomiasis); conditions: 100 mg/kg oral, two doses (day 1 and day 3), mice
Method: Anti-Schistosomal in vivo Efficacy Screen
An anti-schistosomal efficacy trial of the compounds described herein was conducted on a murine model of Schistosomiasis using the following procedure. Schistosoma mansoni cercaria were prepared from infected Biomphalaria glabrata snails by inducing synchronous shedding upon exposure to light for 40 minutes (in artificial pond water). […] A maximum of 6 mice were housed in a cage for the duration of the 7-week infection.
At 6 wks post infection (Day 42 post infection), mice were dosed with anthelmintic chemicals using autoclaved gavage needles for oral delivery. The gavage needle was dipped into a concentrated solution of sucrose (approx. 1 g/ml) before dosing as a refinement measure to reduce stress-related reactions.
For oral dosing, the compounds (dry powder) were weighed and prepared in an appropriate excipient (e.g. 10% DMSO, 20% Kolliphor EL and 70% sterile water). […]
At the end of the treatment (on day 48 post-infection), mice were perfused after receiving an intra-peritoneal administration of non-recoverable dose of sodium pentobarbital (100 μl/10 g body weight) containing 100 U/ml heparin solution (in 1×PBS). […] After incubation in a humidified environment containing 5% CO2 at 37° C. for at least 1 h, the quantification of worm burden per each mouse of each treatment was performed. […]

[11] = average of phenotype and motility, read-out: EC50 Schistosomula average
[12] = schistosomula, 72 hour culture, read-out: EC50 Motility
[13] = schistosomula, 72 hour culture, read-out: EC50 Phenotype

Compound	solubility thermodynamic [2]	Selectivity Index Schistosomula [3]	EC50 [3, 11]	EC50 [3, 12]	EC50 [3, 13]	AUC(0-t) [5]	Cmax [5]	MRT last [5]	Tmax [5]	Tlast [5]	half-life at 1 μM [6]	microsomal CLint at 1 μM [6]	Motility (M) Mean score [7]	Phenotype (P) Mean score [7]	other results
CC(=O)CC(c1ccccc1)c1c(O)c2ccccc2oc1=O (stereo not drawn) [Warfarin, reference compound]	> 100 µM														fraction unbound [1]: 0.0727
O=[N+]([O-])c1ccc2nc(Nc3cc(C(F)(F)F)ccc3F)c(Nc3cc(C(F)(F)F)ccc3F)nc2c1 [Compound 9, N^2, N^3-bis(2-fluoro-5-(trifluoromethyl)phenyl)-6-nitroquinoxaline-2,3-diamine]	6.95 µM (≈ 3.68 µg/mL)	223	480 nM	470 nM	480 nM	337 ng·h/mL	79.3 ng/mL	4.22 h	4 h	8.00 h	1.45 h	16 µL/min/mg	3.68	4.63	Selectivity Index Adult ([4]; HepG2 CC50 over adult worm EC50): 29464; EC50 ([4]; Schistosoma mansoni, adult worms): 3.6 nM; global H3K4 methylation compared to the negative control (DMSO) [8]: significant % decrease; CC50 at 24 h [9]: 106000 nM
O=[N+]([O-])c1ccc2nc(Nc3ccc(Cl)cc3)c(Nc3ccc(Cl)cc3)nc2c1 [Compound 4, N^2, N^3-bis(4-chlorophenyl)-6-nitroquinoxaline-2,3-diamine]	12.7 µM (≈ 5.41 µg/mL)	28	470 nM	530 nM	400 nM	436 ng·h/mL	90.4 ng/mL	4.25 h	3.33 h	8.00 h	2.52 h	9.18 µL/min/mg	4.71	5.13	reduction in worm burden in vivo compared to the vehicle [10]: 35.5%; reduction in egg count in vivo compared to the vehicle ([10]; liver eggs): 39.9%
